Laboratory results reported in patent US11427548B2 (Arvinas Operations, Inc., priority 2015, dated 2022).
Like-named read-outs stand apart in the source and are kept apart here.

Target: T1, Androgen Receptor (Homo sapiens, UniProt P10275)
T1 construct: endogenous in cells; host or cells: VCaP cells
T1 sequence (P10275 1-920): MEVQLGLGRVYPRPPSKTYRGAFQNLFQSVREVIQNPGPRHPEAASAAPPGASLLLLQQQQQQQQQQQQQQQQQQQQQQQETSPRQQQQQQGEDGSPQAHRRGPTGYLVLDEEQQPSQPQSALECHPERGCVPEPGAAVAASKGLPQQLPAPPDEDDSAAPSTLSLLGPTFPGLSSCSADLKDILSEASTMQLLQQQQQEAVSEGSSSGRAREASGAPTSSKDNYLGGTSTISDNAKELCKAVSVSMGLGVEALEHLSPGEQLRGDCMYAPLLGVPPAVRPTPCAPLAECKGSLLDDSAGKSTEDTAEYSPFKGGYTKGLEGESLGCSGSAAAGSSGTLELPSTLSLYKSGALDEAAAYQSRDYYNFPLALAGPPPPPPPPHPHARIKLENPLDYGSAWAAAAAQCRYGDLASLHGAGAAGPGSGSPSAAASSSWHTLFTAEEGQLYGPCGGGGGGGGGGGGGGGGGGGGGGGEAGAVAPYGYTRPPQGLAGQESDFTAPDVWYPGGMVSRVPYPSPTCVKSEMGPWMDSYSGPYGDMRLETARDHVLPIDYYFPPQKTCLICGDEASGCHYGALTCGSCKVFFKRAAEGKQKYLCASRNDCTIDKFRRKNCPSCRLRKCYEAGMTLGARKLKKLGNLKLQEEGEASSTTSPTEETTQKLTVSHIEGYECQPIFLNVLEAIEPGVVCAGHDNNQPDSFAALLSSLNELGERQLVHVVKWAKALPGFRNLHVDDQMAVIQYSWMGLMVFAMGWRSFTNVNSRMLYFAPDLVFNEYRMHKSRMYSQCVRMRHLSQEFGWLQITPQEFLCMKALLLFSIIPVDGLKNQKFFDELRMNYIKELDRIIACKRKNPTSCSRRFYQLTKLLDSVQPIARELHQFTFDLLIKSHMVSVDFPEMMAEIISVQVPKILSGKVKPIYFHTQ
Experiment: Androgen Receptor ELISA assay (PathScan AR ELISA) in VCaP cells: AR degradation, Dmax and DC50
Format: cell-based
Settings: for Dmax: VCaP, read-out: VCaP Dmax (%); for DC50: read-out: VCaP DC50, concentration that caused 50% Androgen Receptor degradation
Procedure, shortened: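 VCaP cells in phenol red-free RPMI with 5% charcoal-stripped FBS were grown at least 3 days, then given compound as 7 half-log doses in 0.1% DMSO with 0.1 nM R1881 for 24 h. Lysates went into a sandwich AR ELISA with TMB read at 450 nm.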

Compound | Dmax | DC50 (VCaP cells) | DC50 (VCaP cells (Table 32))
Cc1ncsc1-c1ccc(CNC(=O)[C@@H]2C[C@@H](O)CN2C(=O)[C@@H](NC(=O)COCCCCOCCCOc2ccc(N3C(=S)N(c4ccc(C#N)c(C(F)(F)F)c4)C(=O)C3(C)C)cc2F)C(C)(C)C)cc1 [Example 53, (2S,4R)-1-[(2S)-2-(2-{4-[3-(4-{3-[4-cyano-3-(trifluoromethyl)phenyl]-5,5-dimethyl-4-oxo-2-sulfanylideneimidazolidin-1-yl}-2-fluorophenoxy)propoxy]butoxy}acetamido)-3,3-dimethylbutanoyl]-4-hydroxy-N-{[4-(4-methyl-1,3-thiazol-5-yl)phenyl]methyl}pyrrolidine-2-carboxamide] | > 71% | 51 to 500 nM | 
CC(C)(C)[C@H](NC(=O)COCC#CC#CCOc1ccc(N2C(=S)N(c3ccc(C#N)c(Cl)c3)C(=O)C2(C)C)cc1F)C(=O)N1C[C@H](O)C[C@H]1C(=O)NCc1ccc(-c2cnco2)cc1 [Example 60, (2S,4R)-1-[(2S)-2-{2-[(6-{4-[3-(3-chloro-4-cyanophenyl)-5,5-dimethyl-4-oxo-2-sulfanylideneimidazolidin-1-yl]-2-fluorophenoxy}hexa-2,4-diyn-1-yl)oxy]acetamido}-3,3-dimethylbutanoyl]-4-hydroxy-N-{[4-(1,3-oxazol-5-yl)phenyl]methyl}pyrrolidine-2-carboxamide] | 51 to 70% | 51 to 500 nM | 
CC(C)(C)[C@H](NC(=O)COCC#CC#CCOc1ccc(N2C(=S)N(c3ccc(C#N)c(C(F)(F)F)c3)C(=O)C2(C)C)cc1F)C(=O)N1C[C@H](O)C[C@H]1C(=O)NCc1ccc(-c2cnco2)cc1 [Example 61, (2S,4R)-1-[(2S)-2-(2-{[6-(4-{3-[4-cyano-3-(trifluoromethyl)phenyl]-5,5-dimethyl-4-oxo-2-sulfanylideneimidazolidin-1-yl}-2-fluorophenoxy)hexa-2,4-diyn-1-yl]oxy}acetamido)-3,3-dimethylbutanoyl]-4-hydroxy-N-{[4-(1,3-oxazol-5-yl)phenyl]methyl}pyrrolidine-2-carboxamide] | 51 to 70% | 51 to 500 nM | 
Cc1ncsc1-c1ccc(CNC(=O)[C@@H]2C[C@@H](O)CN2C(=O)[C@@H](NC(=O)CCOCCOc2ccc(-c3ccc(N4C(=S)N(c5ccc(C#N)c(C(F)(F)F)c5)C(=O)C4(C)C)cc3)cn2)C(C)(C)C)cc1 [Example 86] | 26 to 50% |  | < 50 nM
Cc1ncsc1-c1ccc(CNC(=O)[C@@H]2C[C@@H](O)CN2C(=O)[C@@H](NC(=O)CCOCCOc2ccc(-c3ccc(N4C(=S)N(c5ccc(C#N)c(C(F)(F)F)c5)C(=O)C4(C)C)cc3)nc2)C(C)(C)C)cc1 [Example 87] | 26 to 50% |  | < 50 nM
CC(C)(C)[C@H](NC(=O)COCCCCOc1ccc(-c2ccc(N3C(=S)N(c4ccc(C#N)c(Cl)c4)C(=O)C3(C)C)cc2)nc1)C(=O)N1C[C@H](O)C[C@H]1C(=O)NCc1ccc(-c2cnco2)cc1 [Example 89] | > 71% |  | < 50 nM
CC(C)(C)[C@H](NC(=O)COCCCCOc1ccc(-c2ccc(N3C(=S)N(c4ccc(C#N)c(Cl)c4)C(=O)C3(C)C)cc2)cc1)C(=O)N1C[C@H](O)C[C@H]1C(=O)NCc1ccc(-c2cnco2)cc1 [Example 94, (2S,4R)-1-[(2S)-2-{2-[4-(4-{4-[3-(3-chloro-4-cyanophenyl)-5,5-dimethyl-4-oxo-2-sulfanylideneimidazolidin-1-yl]phenyl}phenoxy)butoxy]acetamido}-3,3-dimethylbutanoyl]-4-hydroxy-N-{[4-(1,3-oxazol-5-yl)phenyl]methyl}pyrrolidine-2-carboxamide] | > 71% |  | < 50 nM
Cc1ncsc1-c1ccc([C@H](C)NC(=O)[C@@H]2C[C@@H](O)CN2C(=O)[C@@H](NC(=O)COCCCCOc2ccc(-c3ccc(N4C(=S)N(c5ccc(C#N)c(C(F)(F)F)c5)C(=O)C4(C)C)cc3)cc2)C(C)(C)C)cc1 [Example 95, (2S,4R)-1-[(2S)-2-(2-{4-[4-(4-{3-[4-cyano-3-(trifluoromethyl)phenyl]-5,5-dimethyl-4-oxo-2-sulfanylideneimidazolidin-1-yl}phenyl)phenoxy]butoxy}acetamido)-3,3-dimethylbutanoyl]-4-hydroxy-N-[(1S)-1-[4-(4-methyl-1,3-thiazol-5-yl)phenyl]ethyl]pyrrolidine-2-carboxamide] | > 71% |  | < 50 nM
CC(C)(C)[C@H](NC(=O)COCCCCOc1ccc(-c2ccc(N3C(=S)N(c4ccc(C#N)c(C(F)(F)F)c4)C(=O)C3(C)C)cc2)cc1)C(=O)N1C[C@H](O)C[C@H]1C(=O)NCc1ccc(-c2cnco2)cc1 [Example 96, (2S,4R)-1-[(2S)-2-(2-{4-[4-(4-{3-[4-cyano-3-(trifluoromethyl)phenyl]-5,5-dimethyl-4-oxo-2-sulfanylideneimidazolidin-1-yl}phenyl)phenoxy]butoxy}acetamido)-3,3-dimethylbutanoyl]-4-hydroxy-N-{[4-(1,3-oxazol-5-yl)phenyl]methyl}pyrrolidine-2-carboxamide] | 51 to 70% |  | < 50 nM
Cc1ncsc1-c1ccc(CNC(=O)[C@@H]2C[C@@H](O)CN2C(=O)[C@@H](NC(=O)COCCCCOc2cccc(-c3ccc(N4C(=S)N(c5ccc(C#N)c(C(F)(F)F)c5)C(=O)C4(C)C)cc3)c2)C(C)(C)C)cc1 [Example 99, (2S,4R)-1-[(2S)-2-(2-{4-[3-(4-{3-[4-cyano-3-(trifluoromethyl)phenyl]-5,5-dimethyl-4-oxo-2-sulfanylideneimidazolidin-1-yl}phenyl)phenoxy]butoxy}acetamido)-3,3-dimethylbutanoyl]-4-hydroxy-N-{[4-(4-methyl-1,3-thiazol-5-yl)phenyl]methyl}pyrrolidine-2-carboxamide] | 51 to 70% |  | < 50 nM
Cc1ncoc1-c1ccc(CNC(=O)[C@@H]2C[C@@H](O)CN2C(=O)[C@@H](NC(=O)COCCCCOc2ccc(-c3ccc(N4C(=S)N(c5ccc(C#N)c(Cl)c5)C(=O)C4(C)C)c(F)c3)cc2)C(C)(C)C)cc1 [Example 100, (2S,4R)-1-[(2S)-2-{2-[4-(4-{4-[3-(3-chloro-4-cyanophenyl)-5,5-dimethyl-4-oxo-2-sulfanylideneimidazolidin-1-yl]-3-fluorophenyl}phen-oxy)butoxy]acetamido}-3,3-dimethylbutanoyl]-4-hydroxy-N-{[4-(4-methyl-1,3-oxazol-5-yl)phenyl]methyl}pyrrolidine-2-carboxamide] | > 71% |  | < 50 nM
Cc1ncoc1-c1ccc([C@H](C)NC(=O)[C@@H]2C[C@@H](O)CN2C(=O)[C@@H](NC(=O)COCCCCOc2ccc(-c3ccc(N4C(=S)N(c5ccc(C#N)c(C(F)(F)F)c5)C(=O)C4(C)C)cc3)cc2)C(C)(C)C)cc1 [Example 101, (2S,4R)-1-[(2S)-2-(2-{4-[4-(4-{3-[4-cyano-3-(trifluoromethyl)phenyl]-5,5-dimethyl-4-oxo-2-sulfanylideneimidazolidin-1-yl}phenyl)phenoxy]butoxy}acetamido)-3,3-dimethylbutanoyl]-4-hydroxy-N-[(1S)-1-[4-(4-methyl-1,3-oxazol-5-l)phenyl]ethyl]pyrrolidine-2-carboxamide] | > 71% |  | < 50 nM
Cc1ncsc1-c1ccc(CNC(=O)[C@@H]2C[C@@H](O)CN2C(=O)[C@@H](NC(=O)COCCCCOc2ccc(-c3ccc(N4C(=S)N(c5ccc(C#N)c(C(F)(F)F)c5)C(=O)C4(C)C)cn3)cc2)C(C)(C)C)cc1 [Example 102, (2S,4R)-1-[(2S)-2-(2-{4-[4-(5-{3-[4-cyano-3-(trifluoromethyl)phenyl]-5,5-dimethyl-4-oxo-2-sulfanylideneimidazolidin-1-yl}pyridin-2-yl)phenoxy]butoxy}acetamido)-3,3-dimethylbutanoyl]-4-hydroxy-N-{[4-(4-methyl-1,3-thiazol-5-yl)phenyl]methyl}pyrrolidine-2-carboxamide] | > 71% |  | < 50 nM
Cc1ncsc1-c1ccc(CNC(=O)[C@@H]2C[C@@H](O)CN2C(=O)[C@@H](NC(=O)COCCCCNc2ccc(-c3ccc(N4C(=S)N(c5ccc(C#N)c(C(F)(F)F)c5)C(=O)C4(C)C)cc3)cc2)C(C)(C)C)cc1 [Example 103, (2S,4R)-1-[(2S)-2-[2-(4-{[4-(4-{3-[4-cyano-3-(trifluoromethyl)phenyl]-5,5-dimethyl-4-oxo-2-sulfanylideneimidazolidin-1-yl}phenyl)phen-yl]amino}butoxy)acetamido]-3,3-dimethylbutanoyl]-4-hydroxy-N-{[4-(4-methyl-1,3-thiazol-5-yl)phenyl]methyl}pyrrolidine-2-carboxamide] | > 71% |  | < 50 nM
